Experiments:
[1] = test system: ischemic AKI in C57BL/6J mice; assay: Ischemic AKI model (bilateral IRI 30 min): kidney function and histology; format: in vivo, mouse
Experimental: Mice were treated with 1.83 mg/kg of JHU083 or vehicle every other day via intraperitoneal injection and underwent bilateral IRI surgery on day 7 after the initial injection. […] Hollinger et al., 2020. Mice were followed up until 72 h after IRI, and T cells isolated from post-ischemic kidneys were studied (FIG. 14A).
Mice were anesthetized with an intraperitoneal injection of pentobarbital (75 mg/kg; Akorn, Lake Forest, IL). After shaving of abdominal hair, mice were placed onto a thermostatically controlled heating table. Abdominal midline incision was performed, and both renal pedicles were dissected and clamped for 30 min with a microvascular clamp (Roboz Surgical Instrument, Gaithersburg, MD). After 30 min, microvascular clamps were released from renal pedicles and the kidneys were inspected to confirm reperfusion. During the surgery, mice were kept well hydrated with 1 mL of warm sterile 0.9% saline. After being sutured, mice were allowed to recover with free access to chow and water. Sham surgeries were performed identically without clamping of renal pedicles.
Blood samples were obtained at 0, 24, 48, and 72 h after IRI or cisplatin injection through tail vein collection. Plasma creatinine concentration was measured by Cobas Mira Plus automated analyzer system (Roche, Indianapolis, IN) with creatinine reagent (Pointe Scientific Inc, Canton, MI).
At 24 h after IRI and 72 h after cisplatin injection, mice were anesthetized with ketamine (130 mg/kg; VetOne, Boise, ID) and xylazine (7 mg/kg; Akorn) intraperitoneal injection. After exsanguination, kidneys were collected and fixed with 10% buffered formalin followed by paraffin embedding. Tissue sections were stained with hematoxylin and eosin. A renal pathologist scored necrotic tubules in a blinded fashion.
(§1) Glutamine antagonist, JHU083 was synthesized as previously described, Rais et al., 2016, and dissolved in 50 mM […] 4-(2-hydroxyethyl)-1-piperazineethanesulfonic acid (HEPES) buffered 0.9% saline. Aliquot stocks were stored at −80° C. and thawed right before injection. Before the IRI surgery or cisplatin injection, mice were administered 1.83 mg/kg JHU083 (equivalent to 1 mg/kg DON) or vehicle (50 mM HEPES buffered 0.9% saline) every other day via intraperitoneal injection. Following 4 consecutive dosages, mice underwent IRI surgery or cisplatin injection. The last additional dose was given at 24 h after IRI or cisplatin injection. This dosage regimen was chosen based on efficiency and toxicity data from a previous study. Hollinger et al., 2020.

[2] = test system: kidney T cells; assay: T cells from post-cisplatin AKI kidneys, spectral flow cytometry; format: in vivo, mouse
Experimental: Given the significant protective outcomes in ischemic AKI, we subsequently tested the effect of glutamine blockade on a nephrotoxic AKI model, which is another common etiology of clinical AKI. After pretreatment with JHU083 or vehicle, 25 mg/kg of cisplatin was injected intraperitoneally. T cells were isolated and studied after 72 h after cisplatin treatment (FIG. 16A).
KMNCs were isolated according to our previously described Percoll density gradient protocol. Ascon et al., 2006. Briefly, decapsulated kidneys were immersed and incubated in collagenase D (2 mg/mL; Sigma-Aldrich) solution for 30 min at 37° C. Samples were strained through 70 µm cell strainer (BD Bioscience, Franklin Lakes, NJ), washed, and resuspended in 40% Percoll (GE Healthcare, Chicago, IL) followed by gentle overlaying onto 80% Percoll. After centrifugation at 1,500 g for 30 min in brake off mode at room temperature, KMNCs were collected from interface between 40% and 80% Percoll. Spleens were strained through 40 µm cell strainer (BD Bioscience) and incubated with ammonium-chloride-potassium lysis buffer (Quality Biological, Gaithersburg, MD) for 3 min. Collected cells were washed and resuspended with Roswell Park Memorial Institute (RPMI) 1640 media (Thermo Fisher Scientific, Waltham, MA) containing 5% fetal bovine serum (FBS, Thermo Fisher Scientific). Cells were counted on hemocytometer using trypan blue exclusion under a microscope.
Cells were washed once with phosphate buffered saline (PBS) and stained with viability dye Zombie NIR Fixable Viability (BioLegend, San Diego, CA) for 15 min at room temperature. After washing with Cell Staining Buffer (BioLegend), cells were preincubated with anti-CD16/CD32 Fc receptor blocking antibody (S17011E, BioLegend) for 15 min to prevent nonspecific antibody binding. Subsequently, surface staining was performed in 50 μL of BD horizon™ Brilliant Stain buffer and surface staining antibody cocktail for 30 min at 4° C.: Pacific blue anti-CD44 (IM7, BioLegend), BV510 anti-CD8 (53-6.7, BioLegend), BV570 anti-CD45 (30-F11, BioLegend), BV605 anti-CD69 (H1.2F3, BioLegend), BV650 anti-NK1.1 (PK136, BioLegend), BV711 anti-PD1 (29F.1A12, BioLegend), BV785 anti-TCRβ (H57-597, BioLegend), PE-Cy5.5 anti-CD25 (PC61.5, Thermo Fisher Scientific), APC-R700 anti-CD62L (MEL-14, BD Bioscience), and APC-Fire810 anti-CD4 (GK1.5, BioLegend). Cells were fixed and permeabilized with Foxp3/Transcription Factor Staining kit (Thermo Fisher Scientific) for 30 min at room temperature and washed with permeabilization/wash buffer (Thermo Fisher Scientific). Intracellular staining was conducted in 50 μL of permeabilization/wash buffer with intracellular staining antibody cocktail for 45 min at room temperature: BV421 anti-Ki67 (16A8, BioLegend), Alexa Fluor 488 anti-CPT1a (8F6AE9, Abcam, Cambridge, UK), Alexa Fluor 532 anti-VDAC1 (20B12AF2, Abcam), PerCP-efluor 710 anti-FoxP3 (FJK-16S, Thermo Fisher Scientific), PE anti-GLUT1 (EPR3915, Abcam), Alexa Fluor 594 anti-pS6 (D68F8, Cell Signaling, Danvers, MA), PE-Cy5 anti-HKII (EPR20839, Abcam), PE-Cy7 anti-H3K27me3 (C36B11, Cell Signaling), and Alexa Fluor 647 anti-Tomm20 (EPR15581-54, Abcam). After staining, cells were washed with permeabilization/wash buffer then resuspended in Cell Staining Buffer. Samples were analyzed by 4-laser Aurora spectral flow cytometer (Cytek, Fremont, CA).
as §1, with “The last additional dose was given at 24 h after IRI or cisplatin injection. This dosage regimen was chosen based on efficiency and toxicity data from a previous study. Hollinger et al., 2020.” left out

[3] = post-cisplatin AKI kidneys, vehicle 21.4±2.7, P=0.001

## CCOC(=O)[C@H](CCC(=O)C=[N+]=[N-])NC(=O)[C@@H](N)CC(C)C [JHU083]
[1]; 24 h after IRI, JHU083 1.83 mg/kg i.p. every other day, mean±SEM, vehicle 1.61±0.18, P=0.026
  plasma creatinine at 24 h: 1.07 ± 0.14 mg/dL
[1]; 24 h after IRI, vehicle 6.6±0.9, P=0.039
  cortical necrotic tubules: 4.2±0.5%
[1]; 24 h after IRI, vehicle 69.7±3.1, P=0.093
  medullary necrotic tubules: 58.3±5.7%
[1]; Example 1, FIG. 7, treated before inducing AKI
  renal injury: attenuated renal injury at 24 hr
[2]; cisplatin AKI, FIG. 17C
  CD69 expression in CD4+, CD8+, and DN T cells: reduced
[2]; [3]
  CD69+ among kidney CD8+ T cells: 9.8±1.5%
  Ki67+ among kidney CD8+ T cells: 9.8±1.5%
[2]; post-cisplatin AKI kidneys, vehicle 37.0±2.9, P=0.003
  Ki67+ among kidney CD4+ T cells: 25.4±1.8
[2]; post-cisplatin AKI kidneys, vehicle 37.0±2.9, P=0.014
  CD69+ among kidney CD4+ T cells: 25.4±1.8%
[2]; post-cisplatin AKI kidneys, vehicle 37.5±3.2
  CD62L+ among kidney CD4+ T cells: 52.5±3.0%
[2]; post-cisplatin AKI kidneys, vehicle 43.3±3.3, P<0.001
  CD44+ among kidney CD8+ T cells: 26.4±2.3%
[2]; post-cisplatin AKI kidneys, vehicle 48.9±4.2, P<0.001
  CD62L+ among kidney CD8+ T cells: 76.0±2.3%
[2]; post-cisplatin AKI kidneys, vehicle 50.2±3.4, P=0.037
  CD44+ among kidney CD4+ T cells: 40.9±2.4%
